Molecular target: α-glucosidase
Test: pNPG hydrolysis, absorbance at […] nm, commercial enzyme
Format: biochemical

IC50 [µM] | SMILES
485 | O=C(O)CCC(=O)OC[C@H]1O[C@@H](Oc2cc(O)c3c(=O)cc(-c4ccc(O)cc4)oc3c2)[C@H](O)[C@@H](O)[C@@H]1O [SAG, apigenin-7-O-β-(6″-O-succinyl)-D-glucoside]
532 | O=c1cc(-c2ccc(O)cc2)oc2cc(O[C@@H]3O[C@H](CO)[C@@H](O)[C@H](O)[C@H]3O)cc(O)c12 [AG, apigenin-7-O-β-(6″-O)-D-glucoside]

SMILES | IC50 [µM]
O=c1cc(-c2ccc(O)cc2)oc2cc(O)cc(O)c12 [Apigenin] | 525
